Test results from patent publication US8048825B2, “Haloalkylsulfonanilide derivatives or salt thereof, herbicide comprising the derivatives as active ingredient, and use of the herbicide” (Nihon Nohyaku Co., Ltd., priority 2006, dated 2011).

Experiments:
Lindernia procumbens [1] = test: Herbicidal efficacy on paddy field weeds of pre-emergence stage (Pre), Test Example 1; type: in vivo; conditions: 1000 g/ha as active ingredient, examined after 21 days
Method in brief: (§1)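 Pre-emergence paddy test: 1000 g/ha active ingredient, formulated and water-diluted, dropped onto 5 cm floodwater one day after sowing both weeds in clay loam. After 21 days in greenhouse, inhibition relative to untreated control rated on 0 (0%) to 5 (100%) scale.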

Scirpus juncoides [2] = test: as above; type: in vivo; conditions: 1000 g/ha as active ingredient, examined after 21 days
Method in brief: as §1

Echinochloa crus-galli = test: Herbicidal effect on paddy field weeds of post-emergence stage (Post), Test Example 2; type: in vivo; conditions: one-leaf stage, 1000 g/ha as active ingredient, examined after 21 days
Method in brief: (§2)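 Post-emergence paddy test: formulated compound added to 5 cm standing water at 1000 g/ha a.i. when weeds reached one-leaf stage in clay loam pots in greenhouse. Growth inhibition rated 21 days later versus untreated control on a 0 (0%) to 5 (100%) scale.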

Lindernia procumbens [3] = test: as above; type: in vivo; conditions: one-leaf stage, 1000 g/ha as active ingredient, examined after 21 days
Method in brief: as §2

Scirpus juncoides [4] = test: as above; type: in vivo; conditions: one-leaf stage, 1000 g/ha as active ingredient, examined after 21 days
Method in brief: as §2

[5] = test system: transplanted paddy-rice (rice species: Nihonbare); test: Test of phytotoxicity on transplanted paddy-rice, Test Example 3; type: in vivo; conditions: two-leaf stage seedlings, 1000 g/ha as active ingredient, applied 5 days after transplantation, examined after 21 days
Source text: Criteria for herbicidal efficacy (growth inhibiting degree) and phytotoxicity. • 5 . . . 100% herbicidal effect, phytotoxicity. • 4 . . . 90%-99% herbicidal effect, phytotoxicity. • 3 . . . 70%-89% herbicidal effect, phytotoxicity. • 2 . . . 40%-69% herbicidal effect, phytotoxicity. • 1 . . . 1%-39% herbicidal effect, phytotoxicity. • 0 . . . 0% herbicidal effect, phytotoxicity.
75 cm^2 plastic pots were filled with the soil (clay loam) and filled with water depth of 5 cm and 2 rice plant seedlings (rice species: Nihonbare) at two-leaf stage were transplanted therein. They were brought up in a greenhouse and, after five days from the transplantation, predetermined effective dosage (1000 g/ha in terms of active ingredient) of formulations comprising a compound of the present invention as an active ingredient was applied to the pot water. Then, they were brought up in a greenhouse and the phytotoxicity was examined after 21 days from the treatment by comparing with the result of an untreated group according to the criteria of Test Example 1. In the table, “-” means that the test was not performed.

Row | Compound | Lindernia procumbens pre (herbicidal effect) (Lindernia procumbens [1]) | Scirpus juncoides pre (herbicidal effect) (Scirpus juncoides [2]) | Echinochloa crus-galli post (herbicidal effect) (Echinochloa crus-galli) | Lindernia procumbens post (herbicidal effect) (Lindernia procumbens [3]) | Scirpus juncoides post (herbicidal effect) (Scirpus juncoides [4]) | Rice (phytotoxicity) [5] | melting point [°C]
1 | CCOC(=O)N(c1ccccc1CN1CCC(C)(C2CCC2)OC1=O)S(=O)(=O)C(F)(F)F (centres unmarked) [Compound 1-384] | 5 (100% herbicidal effect, phytotoxicity) | 5 (100% herbicidal effect, phytotoxicity) | 4 (90%-99% herbicidal effect, phytotoxicity) | 5 (100% herbicidal effect, phytotoxicity) | 4 (90%-99% herbicidal effect, phytotoxicity) |  | 
2 | CC(C)COC(=O)N(c1ccccc1CN1CCC(C)(C2CCC2)OC1=O)S(=O)(=O)C(F)(F)F (centres unmarked) [Compound 1-387] | 5 (100% herbicidal effect, phytotoxicity) | 5 (100% herbicidal effect, phytotoxicity) | 5 (100% herbicidal effect, phytotoxicity) | 5 (100% herbicidal effect, phytotoxicity) | 5 (100% herbicidal effect, phytotoxicity) |  | 
3 | CC(C)(C)COC(=O)N(c1ccccc1CN1CCC(C)(C2CCC2)OC1=O)S(=O)(=O)C(F)(F)F (centres unmarked) [Compound 1-388] | 5 (100% herbicidal effect, phytotoxicity) | 5 (100% herbicidal effect, phytotoxicity) | 5 (100% herbicidal effect, phytotoxicity) | 5 (100% herbicidal effect, phytotoxicity) | 4 (90%-99% herbicidal effect, phytotoxicity) |  | 
4 | COC(=O)N(c1ccccc1CN1CCC(C)(c2ccccc2C(F)(F)F)OC1=O)S(=O)(=O)C(F)(F)F (centres unmarked) [Compound 1-394] | 5 (100% herbicidal effect, phytotoxicity) | 5 (100% herbicidal effect, phytotoxicity) | 4 (90%-99% herbicidal effect, phytotoxicity) | 5 (100% herbicidal effect, phytotoxicity) | 4 (90%-99% herbicidal effect, phytotoxicity) |  | 
5 | CCOC(=O)N(c1ccccc1CN1CCC(C)(c2ccccc2C(F)(F)F)OC1=O)S(=O)(=O)C(F)(F)F (centres unmarked) [Compound 1-395] | 5 (100% herbicidal effect, phytotoxicity) | 5 (100% herbicidal effect, phytotoxicity) | 4 (90%-99% herbicidal effect, phytotoxicity) | 5 (100% herbicidal effect, phytotoxicity) | 4 (90%-99% herbicidal effect, phytotoxicity) |  | 
6 | CCOC(=O)N(c1ccccc1CN1CCC(C)(c2ccccc2C)OC1=O)S(=O)(=O)C(F)(F)F (centres unmarked) [Compound 1-406] | 5 (100% herbicidal effect, phytotoxicity) | 5 (100% herbicidal effect, phytotoxicity) | 5 (100% herbicidal effect, phytotoxicity) | 5 (100% herbicidal effect, phytotoxicity) | 4 (90%-99% herbicidal effect, phytotoxicity) |  | 
7 | CCC1(C(F)(F)F)CCN(Cc2ccccc2N(C(=O)OCCCl)S(=O)(=O)C(F)(F)F)C(=O)O1 (centres unmarked) [Compound 1-415] | 5 (100% herbicidal effect, phytotoxicity) | 5 (100% herbicidal effect, phytotoxicity) | 5 (100% herbicidal effect, phytotoxicity) | 5 (100% herbicidal effect, phytotoxicity) | 4 (90%-99% herbicidal effect, phytotoxicity) |  | 
8 | CCC1(CC(C)C)CCN(Cc2ccccc2NS(=O)(=O)C(F)(F)F)C(=O)O1 (centres unmarked) [Compound 1-417] | 5 (100% herbicidal effect, phytotoxicity) | 5 (100% herbicidal effect, phytotoxicity) | 4 (90%-99% herbicidal effect, phytotoxicity) | 5 (100% herbicidal effect, phytotoxicity) | 4 (90%-99% herbicidal effect, phytotoxicity) |  | 
9 | CC1(C)CCN(Cc2ccccc2N(C(=O)Oc2ccccc2)S(=O)(=O)C(F)(F)F)C(=O)O1 [Compound 1-506] | 5 (100% herbicidal effect, phytotoxicity) | 5 (100% herbicidal effect, phytotoxicity) | 4 (90%-99% herbicidal effect, phytotoxicity) | 5 (100% herbicidal effect, phytotoxicity) | 4 (90%-99% herbicidal effect, phytotoxicity) |  | 
10 | CCCOC(=O)N(c1ccccc1CN1CCCOC1=O)S(=O)(=O)C(F)(F)F [Compound No. 1-4, 3-{2-[N-(propoxycarbonyl)-N -(trifluoromethanesulfonyl)amino]benzyl)-[1,3]-oxazinan-2-one] | 4 (90%-99% herbicidal effect, phytotoxicity) | 4 (90%-99% herbicidal effect, phytotoxicity) |  |  | 4 (90%-99% herbicidal effect, phytotoxicity) | 3 (70%-89% herbicidal effect, phytotoxicity) | 
11 | CC1(C)COC(=S)N(Cc2ccccc2NS(=O)(=O)C(F)(F)F)C1 [Compound No. 1-34, 5,5-dimethyl-3-[2-(trifluoromethanesulfonylamino)benzyl]-[1,3]-oxazinan-2-thione] | 4 (90%-99% herbicidal effect, phytotoxicity) | 4 (90%-99% herbicidal effect, phytotoxicity) |  |  | 4 (90%-99% herbicidal effect, phytotoxicity) |  | 129.9
12 | COC(=O)N(c1ccccc1CN1CC(C)(C)COC1=S)S(=O)(=O)C(F)(F)F [Compound No. 1-35, 5,5-dimethyl-3-(2-[N-(methoxycarbonyl)-N-(trifluoromethanesulfonyl)amino]benzyl)-[1,3]-oxazinane-2-thione] | 4 (90%-99% herbicidal effect, phytotoxicity) | 4 (90%-99% herbicidal effect, phytotoxicity) |  |  | 4 (90%-99% herbicidal effect, phytotoxicity) | 2 (40%-69% herbicidal effect, phytotoxicity) | 
13 | O=C1OC(c2ccccc2)CCN1Cc1ccccc1NS(=O)(=O)C(F)(F)F (centres unmarked) [Compound No. 1-239, 6-phenyl-3-[2-(trifluoromethanesulfonylamino)benzyl]-[1,3]-oxazinan-2-one] | 5 (100% herbicidal effect, phytotoxicity) |  |  |  | 4 (90%-99% herbicidal effect, phytotoxicity) |  | 152
14 | CCOCN(c1ccccc1CN1CCC(c2ccccc2)OC1=O)S(=O)(=O)C(F)(F)F (centres unmarked) [Compound No. 1-248, 6-phenyl-3-{2-[N-(ethoxymethyl)-N-(trifluoromethanesulfonyl)amino]benzyl)-[1,3]-oxazinan-2-one] |  |  |  |  |  |  | 115.6
15 | CC(C)COC(=O)N(c1ccccc1CN1CCC(C)COC1=O)S(=O)(=O)C(F)(F)F (centres unmarked) [Compound No. 2-28, 3-(2-[N-(isobutoxycarbonyl)-N-(trifluoromethanesulfonyl)amino]benzyl)-6-methyl-[1,3]-oxazepan-2-one] | 4 (90%-99% herbicidal effect, phytotoxicity) | 4 (90%-99% herbicidal effect, phytotoxicity) |  |  | 4 (90%-99% herbicidal effect, phytotoxicity) | 3 (70%-89% herbicidal effect, phytotoxicity) | 
